Results from PubChem BioAssay AID1919007 (Molecular Pharmacology Branch, DTP, NCI, 2023).
Where “and” joins values, the source holds several entries; their conditions need not be identical. Identical values can stand only once.

Test system: A498 complex spheroids with HUVEC/MSC, growth
Assay: Anticancer human tumor A498 cell line growth inhibition [AhR];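 also: seven day exposure starting three days after spheroid seeding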;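 as to viability, T/C: luminescence signal used as a surrogate for viable cells; luminescence viability scaled so 100% equals DMSO vehicle wells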
Conditions: for viability, T/C: stronger effect = lower value
Method in brief: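 Spheroids combined tumor cells with HUVEC endothelial cells and human MSCs as stroma. AhR antagonists were paired with standard or investigational drugs, each dosed in half-log steps down from near clinical Cmax, or from 10 microM where Cmax was unknown.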

CC(C)CC(NC(=O)C(Cc1ccccc1)NC(=O)c1cnccn1)B(O)O (configuration not stated) + CC(CO)NC(=O)c1cc(-c2ccc(Cl)cc2)nn(-c2cnn(C)c2)c1=O showed an IC50 (curve of first compound, second compound 0.1 µM) of 2.95 nM, an IC50 (curve of first compound, second compound 0.316 µM) of 3.2 nM and an IC50 (curve of first compound, second compound 1 µM) of 2.67 nM. The IC50 (curve of first compound, second compound 3.16 µM) was 2.13 nM, the IC50 (curve of first compound, second compound 10 µM) was 1.57 nM and the viability, T/C (second compound 0.1 µM, first compound 0.000949 µM) was 91.1%. The viability, T/C (second compound 0.1 µM, first compound 0.003 µM) was 49.4%, the viability, T/C (second compound 0.1 µM, first compound 0.00949 µM) was 3.71% and the viability, T/C (second compound 0.1 µM, first compound 0.03 µM) was 0.58%. It also gave a viability, T/C (second compound 0.1 µM, first compound 0.0949 µM) of 2.33%, a viability, T/C (second compound 0.1 µM, first compound 0.3 µM) of 1.23% and a viability, T/C (second compound 0.316 µM, first compound 0.000949 µM) of 90%. The viability, T/C (second compound 0.316 µM, first compound 0.003 µM) was 52.6%, the viability, T/C (second compound 0.316 µM, first compound 0.00949 µM) was 4.62% and the viability, T/C (second compound 0.316 µM, first compound 0.03 µM) was 1.25%. The viability, T/C (second compound 0.316 µM, first compound 0.0949 µM) was 0.46%, the viability, T/C (second compound 0.316 µM, first compound 0.3 µM) was 1.14% and the viability, T/C (second compound 1 µM, first compound 0.000949 µM) was 87.2%. The viability, T/C (second compound 1 µM, first compound 0.003 µM) was 45.8%, the viability, T/C (second compound 1 µM, first compound 0.00949 µM) was 4.69% and the viability, T/C (second compound 1 µM, first compound 0.03 µM) was 1.75%. For the same compound, the viability, T/C (second compound 1 µM, first compound 0.0949 µM) was 1.82%, the viability, T/C (second compound 1 µM, first compound 0.3 µM) was 2.86% and the viability, T/C (second compound 3.16 µM, first compound 0.000949 µM) was 79.4%. It also gave a viability, T/C (second compound 3.16 µM, first compound 0.003 µM) of 37.6%, a viability, T/C (second compound 3.16 µM, first compound 0.00949 µM) of 5.03% and a viability, T/C (second compound 3.16 µM, first compound 0.03 µM) of 1.11%. It also gave a viability, T/C (second compound 3.16 µM, first compound 0.0949 µM) of 3.08%, a viability, T/C (second compound 3.16 µM, first compound 0.3 µM) of 0.24% and a viability, T/C (second compound 10 µM, first compound 0.000949 µM) of 65.7%. The viability, T/C (second compound 10 µM, first compound 0.003 µM) was 29.6%, the viability, T/C (second compound 10 µM, first compound 0.00949 µM) was 4.31% and the viability, T/C (second compound 10 µM, first compound 0.03 µM) was 0.81%. The viability, T/C (second compound 10 µM, first compound 0.0949 µM) was 2.81% and the viability, T/C (second compound 10 µM, first compound 0.3 µM) was 0.32%.
CC[C@@]1(O)C(=O)OCc2c1cc1n(c2=O)Cc2cc3c(CN(C)C)c(O)ccc3nc2-1 was tested, and the viability, T/C (compound 0.000316 µM) was 97.9% and 107% and 110%, the viability, T/C (compound 0.001 µM) was 103% and 111% and 112% and the viability, T/C (compound 0.00316 µM) was 112% and 102% (2×). For the same compound, the viability, T/C (compound 0.01 µM) was 86.9% and 93.3% and 98.7%, the viability, T/C (compound 0.0316 µM) was 79.8% and 82.3% and 85.8% and the viability, T/C (compound 0.1 µM) was 73.1% and 85% and 66.5%. For the same compound, the IC50 (curve of compound) was > 100 nM.
